The values below come from patent publication US12239648B2, “KIF5B-RET fusion molecules and uses thereof” (Foundation Medicine, Inc., priority 2011, dated 2025).

Assay [1] has as its system Thyroid cancers and cell lines harboring PTC-RET translocations. As to conditions: PTC/RET translocations overexpressing the RET kinase domain; Henderson 2008, Carlomagno 2006; cited from earlier work.
A further assay relates to KIF5B-RET Ba/F3 cells. The experiment in a line: Effects of drugs on Ba/F3 cells transfected with KIF5B-RET fusion constructs (IL-3 independent growth). Format: cell-based. As to conditions: Ba/F3 cells expressing KIF5B-RET, FIG. 8. The source says: FIG. 8 is a graph showing the effects of different drugs on Ba/F3 cells transfected with KIF5B-RET fusion constructs.

As for `CNC(=O)c1cc(Oc2ccc(NC(=O)Nc3ccc(Cl)c(C(F)(F)F)c3)cc2)ccn1` [sorafenib], the “sensitivity of thyroid cancer and cell lines harboring PTC/RET translocations” value in assay [1] was “sensitive”. In the assay on KIF5B-RET Ba/F3 cells, the “sensitivity of KIF5B-RET transformed Ba/F3 cells to drug” value was “sensitive”.
